# Where two headings read alike, the source gives them in different places.
# How the values were obtained:
# Format in all cases: cell-based
# SARS-CoV-2 variant Beta [1] = experiment: microbe, parasite or virus in culture; details: for EC50: read-out: Antiviral Activity Against SARS-CoV-2 Variants in Vero EC50, Beta; for EC90: read-out: Antiviral Activity Against SARS-CoV-2 Variants in Vero EC90, Beta
# SARS-CoV-2 variant Alpha [2] = experiment: microbe, parasite or virus in culture; details: for EC50: read-out: Antiviral Activity Against SARS-CoV-2 Variants in Vero EC50, Alpha; for EC90: read-out: Antiviral Activity Against SARS-CoV-2 Variants in Vero EC90, Alpha
# SARS-CoV-2 variant Delta = experiment: microbe, parasite or virus in culture
# SARS-CoV-2 variant Gamma [3] = experiment: microbe, parasite or virus in culture; details: for EC50: read-out: Antiviral Activity Against SARS-CoV-2 Variants in Vero EC50, Gamma; for EC90: read-out: Antiviral Activity Against SARS-CoV-2 Variants in Vero EC90, Gamma
# [4] = test system: SARS-CoV-2 Lineage A (Eng); experiment: Antiviral activity against SARS-CoV-2 Lineage A (Eng) in Vero; details: for EC50: read-out: Antiviral Activity Against SARS-CoV-2 Variants in Vero EC50, Lineage A (Eng); for EC90: read-out: Antiviral Activity Against SARS-CoV-2 Variants in Vero EC90, Lineage A (Eng)
# [5] = test system: SARS-CoV-2 Lineage A (Wa); experiment: Antiviral activity against SARS-CoV-2 Lineage A (Wa) in Vero; details: read-out: Antiviral Activity Against SARS-CoV-2 Variants in Vero EC50, Lineage A (Wa)
# SARS-CoV-2 variant Beta [6] = experiment: microbe, parasite or virus in culture; details: Severe acute respiratory syndrome coronavirus 2, Calu-3, read-out: Antiviral Activity Against SARS-CoV-2 Variants in Calu3 EC50, Beta
# [7] = test system: SARS-CoV-2 Lineage A (Eng); experiment: Antiviral activity against SARS-CoV-2 Lineage A (Eng) in Calu3
# SARS-CoV-2 variant Alpha [8] = experiment: microbe, parasite or virus in culture
# [9] = test system: SARS-CoV-2 Lineage A (Wa); experiment: Antiviral activity against SARS-CoV-2 Lineage A (Wa) in Calu3
# SARS-CoV-2 variant Gamma [10] = experiment: microbe, parasite or virus in culture
# [11] = Severe acute respiratory syndrome coronavirus 2, Vero
# [12] = Severe acute respiratory syndrome coronavirus 2, Beta, Vero
# [13] = Severe acute respiratory syndrome coronavirus 2, Alpha, Vero
# [14] = Severe acute respiratory syndrome coronavirus 2, Gamma, Vero
# [15] = Severe acute respiratory syndrome coronavirus 2, Lineage A (Eng), Vero
smiles,measurement,setting,value
"O=c1ccn([C@@H]2S[C@H](CO)[C@@H](O)[C@H]2O)c(=O)[nH]1 [Compound 8, 1-((2R,3R,4S,5R)-3,4-dihydroxy-5-(hydroxymethyl)tetrahydrothiophen-2-yl)pyrimidine-2,4(1H,3H)-dione]",EC50,SARS-CoV-2 variant Beta [1]; [11],800 nM
same,EC90,SARS-CoV-2 variant Beta [1]; [11],1000 nM
same,EC50,SARS-CoV-2 variant Alpha [2]; [11],300 nM
same,EC90,SARS-CoV-2 variant Alpha [2]; [11],1400 nM
same,EC50,"SARS-CoV-2 variant Delta; Severe acute respiratory syndrome coronavirus 2, Calu-3, read-out: Antiviral Activity Against SARS-CoV-2 Variants in Calu3 EC50, Delta",1800 nM
same,EC90,"SARS-CoV-2 variant Delta; Severe acute respiratory syndrome coronavirus 2, Calu-3, read-out: Antiviral Activity Against SARS-CoV-2 Variants in Calu3 EC90, Delta",3600 nM
same,EC50,SARS-CoV-2 variant Gamma [3]; [11],200 nM
same,EC90,SARS-CoV-2 variant Gamma [3]; [11],300 nM
same,EC50,[4]; [11],200 nM
same,EC90,[4]; [11],400 nM
same,EC50,[5]; [11],800 nM
same,EC50,SARS-CoV-2 variant Beta [6],1100 nM
same,EC90,"[7]; Severe acute respiratory syndrome coronavirus 2, Calu-3, read-out: Antiviral Activity Against SARS-CoV-2 Variants in Calu3 EC90, Lineage A (Eng)",4500 nM
same,EC50,"SARS-CoV-2 variant Alpha [8]; Severe acute respiratory syndrome coronavirus 2, Calu-3, read-out: Antiviral Activity Against SARS-CoV-2 Variants in Calu3 EC50, Alpha",300 nM
same,EC50,"[9]; Severe acute respiratory syndrome coronavirus 2, Calu-3, read-out: Antiviral Activity Against SARS-CoV-2 Variants in Calu3 EC50, Lineage A (Wa)",100 nM
same,EC90,"[9]; Severe acute respiratory syndrome coronavirus 2, Calu-3, read-out: Antiviral Activity Against SARS-CoV-2 Variants in Calu3 EC90, Lineage A (Wa)",400 nM
same,EC50,"SARS-CoV-2 variant Gamma [10]; Severe acute respiratory syndrome coronavirus 2, Calu-3, read-out: Antiviral Activity Against SARS-CoV-2 Variants in Calu3 EC50, Gamma",40 nM
same,EC90,"SARS-CoV-2 variant Gamma [10]; Severe acute respiratory syndrome coronavirus 2, Calu-3, read-out: Antiviral Activity Against SARS-CoV-2 Variants in Calu3 EC90, Gamma",100 nM
"CCC(CC)COC(=O)[C@H](C)N[P@](=O)(OC[C@H]1O[C@@](C#N)(c2ccc3c(N)ncnn23)[C@H](O)[C@@H]1O)Oc1ccccc1 [Remdesivir, reference compound]",EC50,SARS-CoV-2 variant Beta [1]; [12],1100 nM
same,EC90,SARS-CoV-2 variant Beta [1]; [12],2200 nM
same,EC50,SARS-CoV-2 variant Alpha [2]; [13],400 nM
same,EC90,SARS-CoV-2 variant Alpha [2]; [13],1600 nM
same,EC50,"SARS-CoV-2 variant Delta; Severe acute respiratory syndrome coronavirus 2, Calu-3, Delta, Calu3, read-out: Antiviral Activity Against SARS-CoV-2 Variants in Calu3 EC50, Delta",300 nM
same,EC90,"SARS-CoV-2 variant Delta; Severe acute respiratory syndrome coronavirus 2, Calu-3, Delta, Calu3, read-out: Antiviral Activity Against SARS-CoV-2 Variants in Calu3 EC90, Delta",2300 nM
same,EC50,SARS-CoV-2 variant Gamma [3]; [14],300 nM
same,EC90,SARS-CoV-2 variant Gamma [3]; [14],2100 nM
same,EC50,[4]; [15],300 nM
same,EC90,[4]; [15],2900 nM
same,EC50,"[5]; Severe acute respiratory syndrome coronavirus 2, Lineage A (Wa), Vero",200 nM
same,EC50,"[7]; Severe acute respiratory syndrome coronavirus 2, Calu-3, Lineage A (Eng), Calu3, read-out: Antiviral Activity Against SARS-CoV-2 Variants in Calu3 EC50, Lineage A (Eng)",20 nM
same,EC90,"[7]; Severe acute respiratory syndrome coronavirus 2, Calu-3, Lineage A (Eng), Calu3, read-out: Antiviral Activity Against SARS-CoV-2 Variants in Calu3 EC90, Lineage A (Eng)",300 nM
same,EC50,"SARS-CoV-2 variant Alpha [8]; Severe acute respiratory syndrome coronavirus 2, Calu-3, Alpha, Calu3, read-out: Antiviral Activity Against SARS-CoV-2 Variants in Calu3 EC50, Alpha",300 nM
same,EC90,"SARS-CoV-2 variant Alpha [8]; Severe acute respiratory syndrome coronavirus 2, Calu-3, Alpha, Calu3, read-out: Antiviral Activity Against SARS-CoV-2 Variants in Calu3 EC90, Alpha",400 nM
same,EC50,"[9]; Severe acute respiratory syndrome coronavirus 2, Calu-3, Lineage A (Wa), Calu3, read-out: Antiviral Activity Against SARS-CoV-2 Variants in Calu3 EC50, Lineage A (Wa)",100 nM
same,EC90,"[9]; Severe acute respiratory syndrome coronavirus 2, Calu-3, Lineage A (Wa), Calu3, read-out: Antiviral Activity Against SARS-CoV-2 Variants in Calu3 EC90, Lineage A (Wa)",400 nM
same,EC50,"SARS-CoV-2 variant Gamma [10]; Severe acute respiratory syndrome coronavirus 2, Calu-3, Gamma, Calu3, read-out: Antiviral Activity Against SARS-CoV-2 Variants in Calu3 EC50, Gamma",260 nM
same,EC90,"SARS-CoV-2 variant Gamma [10]; Severe acute respiratory syndrome coronavirus 2, Calu-3, Gamma, Calu3, read-out: Antiviral Activity Against SARS-CoV-2 Variants in Calu3 EC90, Gamma",300 nM

# From patent publication US20240216413A1, “THIONUCLEOSIDES AS ANTIVIRAL AGENTS” (priority 2021, published 2024)
